The values that follow come from patent publication US11034650B2, “Compounds useful for treating a Mannheimia haemolytica or Histophilus somni infection” (Intervet Inc., priority 2016, dated 2021).

Values after ≈ are worked out from the molar mass of the structure shown. Where only a bound is given, the exact number is not on record here.

What all share (assay type): cell-based
Assay [1] concerns Mannheimia haemolytica MH 6374 (ATCC 33396, reference strain). As to the kind of experiment: MIC, broth-microdilution (CLSI VET01-A4), strain MH 6374. As to conditions: Mannheimia haemolytica strain MH 6374, broth-microdilution; unit assumed. In short, it runs like this:
(§1)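 Test articles are arrayed as a twofold dilution range in microdilution trays. Wells are scored by naked eye, and the MIC is taken where turbidity first disappears.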
In general terms: In broth dilution the organism is exposed to a series of concentrations in liquid medium.

Assay [2] concerns Pasteurella multocida PM 6391 (ATCC 43137, reference strain). As to the kind of experiment: MIC, broth-microdilution (CLSI VET01-A4), strain PM 6391. As to conditions: Pasteurella multocida strain PM 6391, broth-microdilution; unit assumed. In short, it runs like this: as §1
The test system of assay [3] is Pasteurella multocida PM 10775 (080130003051, BRD field isolate). As to the kind of experiment: MIC, broth-microdilution (CLSI VET01-A4), strain PM 10775. As to conditions: Pasteurella multocida strain PM 10775, broth-microdilution; unit assumed. In short, it runs like this:
as §1

The test system of assay [4] is Mannheimia haemolytica MH 12587 (1071, BRD field isolate, macrolide-resistance: erm+, E+). As to the kind of experiment: MIC, broth-microdilution (CLSI VET01-A4), strain MH 12587. As to conditions: Mannheimia haemolytica strain MH 12587, broth-microdilution; unit assumed. In short, it runs like this:
as §1

Assay [5] concerns Mannheimia haemolytica MH 10720 (154, BRD field isolate). As to the kind of experiment: MIC, broth-microdilution (CLSI VET01-A4), strain MH 10720. As to conditions: Mannheimia haemolytica strain MH 10720, broth-microdilution; unit assumed. In short, it runs like this: as §1
Assay [6] concerns Mannheimia haemolytica MH 13093 (XB0472-6014.1, BRD field isolate). As to the kind of experiment: MIC, broth-microdilution (CLSI VET01-A4), strain MH 13093. As to conditions: Mannheimia haemolytica strain MH 13093, broth-microdilution; unit assumed. In short, it runs like this: as §1
Assay [7] has as its system Mannheimia haemolytica MH 13065 (XB0446-6003.9, BRD field isolate). As to the kind of experiment: MIC, broth-microdilution (CLSI VET01-A4), strain MH 13065. As to conditions: Mannheimia haemolytica strain MH 13065, broth-microdilution; unit assumed. In short, it runs like this: as §1
Assay [8] deals with Mannheimia haemolytica MH 6357 (M7/2, reference strain, cattle infection strain). As to the kind of experiment: MIC, broth-microdilution (CLSI VET01-A4), strain MH 6357. As to conditions: Mannheimia haemolytica strain MH 6357, broth-microdilution; unit assumed. In short, it runs like this:
as §1

Assay [9] concerns Pasteurella multocida PM 12080 (IV102277-0093, BRD field isolate). As to the kind of experiment: MIC, broth-microdilution (CLSI VET01-A4), strain PM 12080. As to conditions: Pasteurella multocida strain PM 12080, broth-microdilution; unit assumed. In short, it runs like this: as §1
Assay [10] concerns Pasteurella multocida PM 6267 (P 2225 (L386), reference strain, mouse infection strain). As to the kind of experiment: MIC, broth-microdilution (CLSI VET01-A4), strain PM 6267. As to conditions: Pasteurella multocida strain PM 6267, broth-microdilution; unit assumed. In short, it runs like this:
as §1

For the molecule `CNCc1ccc(C#Cc2ccc(C(=O)N[C@H](C(=O)NO)C(C)C)cc2)cc1` [Compound 207], the MIC MH 6374 in assay [1] is 12.5 µg/mL (≈ 32.9 µM). Besides, in [2], the MIC PM 6391 is 0.8 µg/mL (≈ 2.11 µM). The MIC PM 10775 in assay [3] is not above 0.1 µg/mL. The molecule also yielded an MIC MH 12587 in assay [4] of 12.5 µg/mL (≈ 32.9 µM). The molecule further registered an MIC MH 10720 in assay [5] of 3.1 µg/mL (≈ 8.17 µM). The molecule further yielded an MIC MH 13093 in [6] of 12.5 µg/mL (≈ 32.9 µM). The MIC MH 13065 in [7] was 6.3 µg/mL (≈ 16.6 µM). This molecule yielded an MIC MH 6357 in [8] of 12.5 µg/mL (≈ 32.9 µM). For the same molecule, the MIC PM 12080 in assay [9] was 0.8 µg/mL (≈ 2.11 µM). In addition, the MIC PM 6267 in assay [10] turned out to be 0.2 µg/mL (≈ 0.527 µM).
In turn, `CC(C)[C@H](NC(=O)c1ccc(C#Cc2ccc(CNC3CCCCC3)cc2)cc1)C(=O)NO` [Compound 208] yielded an MIC MH 6374 in assay [1] of 12.5 µg/mL (≈ 27.9 µM). Besides, the MIC PM 6391 in [2] was determined as 0.4 µg/mL (≈ 0.894 µM). The MIC PM 10775 in assay [3] was not above 0.1 µg/mL. The MIC MH 12587 in assay [4] is 25 µg/mL (≈ 55.9 µM). This molecule also showed an MIC MH 10720 in assay [5] of 3.1 µg/mL (≈ 6.93 µM). The MIC MH 13093 in [6] was determined as 12.5 µg/mL (≈ 27.9 µM). The molecule further showed an MIC MH 13065 in [7] of 12.5 µg/mL (≈ 27.9 µM). The same molecule had an MIC MH 6357 in [8] of 12.5 µg/mL (≈ 27.9 µM). Moreover, the MIC PM 12080 in [9] came out at 0.2 µg/mL (≈ 0.447 µM). In assay [10], this molecule registered an MIC PM 6267 of 0.2 µg/mL (≈ 0.447 µM).
As for `CC(C)[C@H](NC(=O)c1ccc(C#Cc2ccc(CNC3CCCC3)cc2)cc1)C(=O)NO` [Compound 209], in assay [1], the MIC MH 6374 is 6.3 µg/mL (≈ 14.5 µM). This molecule had an MIC PM 6391 in assay [2] of 0.4 µg/mL (≈ 0.923 µM). In [3], this molecule gave an MIC PM 10775 not above 0.1 µg/mL. The molecule further came in with an MIC MH 12587 in [4] of 12.5 µg/mL (≈ 28.8 µM). In assay [5], this molecule gave an MIC MH 10720 of 1.6 µg/mL (≈ 3.69 µM). In assay [6], the MIC MH 13093 stood at 12.5 µg/mL (≈ 28.8 µM). Besides, the MIC MH 13065 in [7] was found to be 6.3 µg/mL (≈ 14.5 µM). The molecule also came in with an MIC MH 6357 in assay [8] of 3.1 µg/mL (≈ 7.15 µM). In assay [9], this molecule showed an MIC PM 12080 of 0.2 µg/mL (≈ 0.461 µM). Moreover, the MIC PM 6267 in assay [10] was not above 0.1 µg/mL.
On to `CC(C)[C@H](NC(=O)c1ccc(C#Cc2ccc(CNC3CCC3)cc2)cc1)C(=O)NO` [Compound 210], for which the MIC MH 6374 in [1] worked out at 3.1 µg/mL (≈ 7.39 µM). In assay [2], this molecule had an MIC PM 6391 of 0.2 µg/mL (≈ 0.477 µM). In [3], this molecule yielded an MIC PM 10775 not above 0.1 µg/mL. The molecule further displayed an MIC MH 12587 in [4] of 6.3 µg/mL (≈ 15 µM). The MIC MH 10720 in [5] came to 0.8 µg/mL (≈ 1.91 µM). The MIC MH 13093 in assay [6] was determined as 3.1 µg/mL (≈ 7.39 µM). The MIC MH 13065 in [7] amounted to 1.6 µg/mL (≈ 3.81 µM). For the same molecule, the MIC MH 6357 in [8] was 1.6 µg/mL (≈ 3.81 µM). Further, the MIC PM 12080 in [9] is not above 0.1 µg/mL. In [10], the MIC PM 6267 was not above 0.1 µg/mL.
Take `CC(C)[C@H](NC(=O)c1ccc(C#Cc2ccc(CN3CCN(C)CC3)cc2)cc1)C(=O)NO` [Compound 211]: the MIC MH 6374 in assay [1] is 12.5 µg/mL (≈ 27.9 µM). Moreover, the MIC PM 6391 in assay [2] amounted to 0.2 µg/mL (≈ 0.446 µM). The MIC PM 10775 in assay [3] was not above 0.1 µg/mL. The MIC MH 12587 in [4] came out at 12.5 µg/mL (≈ 27.9 µM). Further, in [5], the MIC MH 10720 was found to be 1.6 µg/mL (≈ 3.57 µM). In [6], this molecule returned an MIC MH 13093 of 6.3 µg/mL (≈ 14 µM). The MIC MH 13065 in assay [7] was determined as 6.3 µg/mL (≈ 14 µM). In addition, the MIC MH 6357 in assay [8] came to 3.1 µg/mL (≈ 6.91 µM). For the same molecule, the MIC PM 12080 in assay [9] was not above 0.1 µg/mL. Besides, the MIC PM 6267 in assay [10] is not above 0.1 µg/mL.
Molecule `CC(C)[C@H](NC(=O)c1ccc(C#Cc2ccc(CN3CCCC3)cc2)cc1)C(=O)NO` [Compound 212] showed an MIC MH 6374 in [1] of 6.3 µg/mL (≈ 15 µM). For the same molecule, the MIC PM 6391 in assay [2] was 0.4 µg/mL (≈ 0.953 µM). The same molecule displayed an MIC PM 10775 in assay [3] not above 0.1 µg/mL. In assay [4], this molecule came in with an MIC MH 12587 of 12.5 µg/mL (≈ 29.8 µM). Moreover, the MIC MH 10720 in assay [5] was 0.8 µg/mL (≈ 1.91 µM). In assay [6], this molecule had an MIC MH 13093 of 12.5 µg/mL (≈ 29.8 µM). The same molecule displayed an MIC MH 13065 in assay [7] of 3.1 µg/mL (≈ 7.39 µM). The molecule further registered an MIC MH 6357 in assay [8] of 3.1 µg/mL (≈ 7.39 µM). In [9], this molecule registered an MIC PM 12080 of 0.2 µg/mL (≈ 0.477 µM). In [10], this molecule displayed an MIC PM 6267 of 0.2 µg/mL (≈ 0.477 µM).
The molecule `O=C(N[C@@H](CO)C(=O)NO)c1ccc(C#Cc2ccc(CNCc3nccs3)cc2)cc1` [Compound 213] returned an MIC MH 6374 in [1] of 1.6 µg/mL (≈ 3.55 µM). Besides, in assay [2], the MIC PM 6391 is 0.4 µg/mL (≈ 0.888 µM). Moreover, the MIC PM 10775 in assay [3] is not above 0.1 µg/mL. This molecule displayed an MIC MH 12587 in [4] of 3.1 µg/mL (≈ 6.88 µM). In [5], this molecule displayed an MIC MH 10720 of 0.8 µg/mL (≈ 1.78 µM). For the same molecule, the MIC MH 13093 in assay [6] was 3.1 µg/mL (≈ 6.88 µM). Moreover, in [7], the MIC MH 13065 was found to be 1.6 µg/mL (≈ 3.55 µM). The molecule also registered an MIC MH 6357 in assay [8] of 1.6 µg/mL (≈ 3.55 µM). In addition, the MIC PM 12080 in assay [9] came to 0.2 µg/mL (≈ 0.444 µM). In addition, in [10], the MIC PM 6267 is not above 0.1 µg/mL.
Molecule `O=C(N[C@@H](CO)C(=O)NO)c1ccc(C#Cc2ccc(CNCc3ccnc(Cl)c3)cc2)cc1` [Compound 214] had an MIC MH 6374 in [1] of 1.6 µg/mL (≈ 3.34 µM). Also, the MIC PM 6391 in assay [2] came to 0.4 µg/mL (≈ 0.835 µM). Moreover, the MIC PM 10775 in assay [3] is not above 0.1 µg/mL. In assay [4], the MIC MH 12587 is 6.3 µg/mL (≈ 13.2 µM). The molecule further returned an MIC MH 10720 in [5] of 0.8 µg/mL (≈ 1.67 µM). Also, the MIC MH 13093 in assay [6] is 3.1 µg/mL (≈ 6.47 µM). Also, the MIC MH 13065 in assay [7] amounted to 3.1 µg/mL (≈ 6.47 µM). Further, the MIC MH 6357 in assay [8] came to 1.6 µg/mL (≈ 3.34 µM). In assay [9], this molecule yielded an MIC PM 12080 of 0.4 µg/mL (≈ 0.835 µM). The MIC PM 6267 in assay [10] stood at 0.2 µg/mL (≈ 0.418 µM).
